The record followed here is patent publication US11690850B2, “Inhibitors of receptor interacting protein kinase I for the treatment of disease” (Board of Regents, The University of Texas System, priority 2019, dated 2023).

This assay addresses RIPK1 (Homo sapiens (Human), UniProt Q13546). Nature of the assay: ADP-Glo Kinase Assay. Type of assay: biochemical. The settings on record: 5 nM RIPK1 protein, 50 μM ATP, 6 hr reaction, average value across multiple runs. How it is done: In order to measure RIPK1 activity the ADP-Glo kinase assay (Promega, Catalog #V7002) was used to measure the conversion of ATP to ADP. This enzymatic assay was performed in a 384-well white, Optiplate (Perkin Elmer, Catalog #6007299) with assay buffer consisting of 50 mM HEPES pH 7.5 (Gibco, Catalog #15630-080), 50 mM NaCl (Teknova, Catalog #S0252), 30 mM MgCl2 (Ambion, Catalog #AM9530G), 1 mM DTT (Santa Cruz Biotechnology, Catalog #sc-29089), 0.05% BSA (Sigma, Catalog #A3059-50G) and 0.02% CHAPS (Sigma, Catalog #C5070-5G). Stock solutions of the test compounds were prepared in 100% DMSO (Sigma, Catalog #D2650) and serially diluted 1:3 using 100% DMSO. Compounds were additionally diluted 1:40 in assay buffer, and 2 μL/well were transferred to the assay plate. 4 μL/well (final concentration of 5 nM) of RIPK1 protein (SignalChem, Catalog #R07-11G-05) diluted in assay buffer and added to the assay plate followed by a 10 minute preincutation at room temperature. 4 μL/well of ATP (Promega, Catalog #V7002) (final concentration of 50 μM) diluted in assay buffer were then added to the assay plate followed by a 6 hr reaction time. Final concentrations of RIPK1 and ATP refer to a 10 μL volume. Luminescence was measured using a BioTek Synergy™ NEO plate reader. IC50 values were calculated using a four-parameter logistic curve fit using Genedata Screener software. Results are shown below in Table 4, where the average value across multiple runs is given.
In general terms: In ADP-Glo the light output rises with the ADP produced.

Each structure is given as a SMILES string. “And” between values parts separate entries of the source, which are not always exact repeats. Equal entries are not always repeated.

One may read the IC50 as the midpoint of a concentration-inhibition curve.

Sequence of RIPK1 (Q13546 1-327): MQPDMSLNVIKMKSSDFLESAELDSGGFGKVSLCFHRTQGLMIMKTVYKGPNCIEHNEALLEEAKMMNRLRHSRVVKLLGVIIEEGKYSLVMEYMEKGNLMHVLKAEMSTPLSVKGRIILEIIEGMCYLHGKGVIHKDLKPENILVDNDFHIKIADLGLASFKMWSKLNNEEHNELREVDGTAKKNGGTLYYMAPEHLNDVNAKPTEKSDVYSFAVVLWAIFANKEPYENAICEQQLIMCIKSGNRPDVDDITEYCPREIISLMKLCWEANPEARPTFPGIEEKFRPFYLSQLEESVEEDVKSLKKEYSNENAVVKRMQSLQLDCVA

With `Cc1cc(=O)c(C(=O)Nc2ccc(F)cc2)nn1-c1ccccc1` [Example 109, N-(4-fluorophenyl)-6-methyl-4-oxo-1-phenyl-1,4-dihydropyridazine-3-carboxamide], the IC50 was found to be 28.1 µM. For `Cc1cc(=O)c(C(=O)Nc2c(F)cccc2C(C)C)nn1-c1ccccc1` [Example 27, N-(2-fluoro-6-isopropylphenyl)-6-methyl-4-oxo-1-phenyl-1,4-dihydropyridazine-3-carboxamide], the IC50 was found to be 1.46 µM. Regarding `Cc1cc(=O)c(C(=O)Nc2cc(Cl)cc(C#N)c2)nn1-c1ccccc1` [Example 5, N-(3-chloro-5-cyanophenyl)-6-methyl-4-oxo-1-phenyl-1,4-dihydropyridazine-3-carboxamide], the IC50 came out at 1.78 µM. For `CN1C(=O)C(NC(=O)c2nn(-c3ccccc3)c(CCl)c(Cl)c2=O)CCc2cc(Cl)ccc21` (centres unmarked) [Example 46, 5-chloro-N-(7-chloro-1-methyl-2-oxo-2,3,4,5-tetrahydro-1H-benzo[b]azepin-3-yl)-6-(chloromethyl)-4-oxo-1-phenyl-1,4-dihydropyridazine-3-carboxamide], the IC50 amounted to 1.44 µM. Regarding `Cc1cc(=O)c(C(=O)Nc2ccc3nn[nH]c3c2)nn1-c1ccccc1` [Example 13, N-(1H-benzo[d][1,2,3]triazol-6-yl)-6-methyl-4-oxo-1-phenyl-1,4-dihydropyridazine-3-carboxamide], the IC50 is 7.92 µM. `Cc1cc(=O)c(C(=O)NC(C)C2CC2)nn1-c1ccccc1` (centres unmarked) [Example 96, N-(1-cyclopropylethyl)-6-methyl-4-oxo-1-phenyl-1,4-dihydropyridazine-3-carboxamide]: the IC50 is 6.49 µM. In the case of `Cc1noc(C(C)NC(=O)c2nn(-c3ccccc3)c(C)cc2=O)n1` (centres unmarked) [Example 105, 6-methyl-N-(1-(3-methyl-1,2,4-oxadiazol-5-yl)ethyl)-4-oxo-1-phenyl-1,4-dihydropyridazine-3-carboxamide], the IC50 was found to be 36.9 µM. With `Cc1cc(=O)c(C(=O)Nc2ccccc2)nn1-c1cccc(Cl)c1F` [Example 7, 1-(3-chloro-2-fluorophenyl)-6-methyl-4-oxo-N-phenyl-1,4-dihydropyridazine-3-carboxamide] the figure was 1.6 µM; with `Cc1cc(=O)c(C(=O)NC(c2ccccc2)C2CC2)nn1-c1ccccc1` (centres unmarked) [Example 98, N-(cyclopropyl(phenyl)methyl)-6-methyl-4-oxo-1-phenyl-1,4-dihydropyridazine-3-carboxamide], 3.57 µM; with `Cc1cccc(C(F)(F)F)c1NC(=O)c1nn(-c2ccccc2)c(C)cc1=O` [Example 29, 6-methyl-N-(2-methyl-6-(trifluoromethyl)phenyl)-4-oxo-1-phenyl-1,4-dihydropyridazine-3-carboxamide], 1.15 µM.

With `Cc1cc(=O)c(C(=O)NCc2cc(F)cc(F)c2)nn1-c1ccccc1` [Example 3, N-(3,5-difluorobenzyl)-6-methyl-4-oxo-1-phenyl-1,4-dihydropyridazine-3-carboxamide], the IC50 came to 10.2 µM.

As to `Cc1cccc(C(C)(C)C)c1NC(=O)c1nn(-c2ccccc2)c(C)cc1=O` [Example 28, N-(2-(tert-butyl)-6-methylphenyl)-6-methyl-4-oxo-1-phenyl-1,4-dihydropyridazine-3-carboxamide], the IC50 stood at 2.68 µM.

With `Cc1cc(=O)c(C(=O)Nc2ccccn2)nn1-c1ccccc1Cl` [Example 102, 1-(2-chlorophenyl)-6-methyl-4-oxo-N-(pyridin-2-yl)-1,4-dihydropyridazine-3-carboxamide], the IC50 came to 2.37 µM.

Turning to `Cc1cc(=O)c(C(=O)Nc2cncc(Cl)c2)nn1-c1ccccc1` [Example 10, N-(5-chloropyridin-3-yl)-6-methyl-4-oxo-1-phenyl-1,4-dihydropyridazine-3-carboxamide], the IC50 is 0.39 µM. In the case of `Cc1cccc(NC(=O)c2nn(-c3ccccc3F)c(C)cc2=O)n1` [Example 95, 1-(2-fluorophenyl)-6-methyl-N-(6-methylpyridin-2-yl)-4-oxo-1,4-dihydropyridazine-3-carboxamide], the IC50 came to 3.94 µM. With `Cc1cc(=O)c(C(=O)Nc2cc(F)cc(F)c2)nn1-c1ccccc1` [Example 92, N-(3,5-difluorophenyl)-6-methyl-4-oxo-1-phenyl-1,4-dihydropyridazine-3-carboxamide], the IC50 amounted to 0.414 µM. `Cc1ccnc(NC(=O)c2nn(-c3ccccc3F)c(C)cc2=O)c1` [Example 94, 1-(2-fluorophenyl)-6-methyl-N-(4-methylpyridin-2-yl)-4-oxo-1,4-dihydropyridazine-3-carboxamide]: the IC50 was 6.35 µM. As to `Cc1noc(C2CC2)c1NC(=O)c1nn(-c2ccccc2)c(C)cc1=O` [Example 112, N-(5-cyclopropyl-3-methylisoxazol-4-yl)-6-methyl-4-oxo-1-phenyl-1,4-dihydropyridazine-3-carboxamide], the half-inhibitory concentration (IC50) was 0.791 µM.

Regarding `Cc1cc(=O)c(C(=O)Nc2cccc(Cl)c2F)nn1Cc1ccccc1` [Example 2, 1-Benzyl-N-(3-chloro-2-fluorophenyl)-6-methyl-4-oxo-1,4-dihydropyridazine-3-carboxamide], the IC50 was 0.823 µM. With `Cc1nccc(NC(=O)c2nn(-c3ccccc3)c(C)cc2=O)n1` [Example 20, 6-methyl-N-(2-methylpyrimidin-4-yl)-4-oxo-1-phenyl-1,4-dihydropyridazine-3-carboxamide] the figure was 4.46 µM; with `CCn1c(NC(=O)c2nn(-c3ccccc3)c(C)cc2=O)nc2ccccc21` [Example 101, N-(1-ethyl-1H-benzo[d]imidazol-2-yl)-6-methyl-4-oxo-1-phenyl-1,4-dihydropyridazine-3-carboxamide], 4.64 µM.

In the case of `Cc1noc(C)c1NC(=O)c1nn(-c2ccccc2)c(C)cc1=O` [Example 16, N-(3,5-dimethylisoxazol-4-yl)-6-methyl-4-oxo-1-phenyl-1,4-dihydropyridazine-3-carboxamide], the IC50 was 4.4 µM. On to `Cc1cccc(NC(=O)c2nn(-c3ccccc3)c(C)cc2=O)n1` [Example 99, 6-methyl-N-(6-methylpyridin-2-yl)-4-oxo-1-phenyl-1,4-dihydropyridazine-3-carboxamide], for which the IC50 was 3.49 µM. Take `Cc1cc(=O)c(C(=O)Nc2cc(Cl)c3cn[nH]c3c2)nn1-c1ccccc1` [Example 18, N-(4-chloro-1H-indazol-6-yl)-6-methyl-4-oxo-1-phenyl-1,4-dihydropyridazine-3-carboxamide]: the IC50 was determined as 4.71 µM. Next, `Cc1cc(=O)c(C(=O)Nc2ccc(C#N)s2)nn1-c1ccccc1` [Example 21, N-(5-cyanothiophen-2-yl)-6-methyl-4-oxo-1-phenyl-1,4-dihydropyridazine-3-carboxamide]: 0.636 µM; `Cc1cc(=O)c(C(=O)Nc2cccc(F)c2)nn1-c1ccccc1` [Example 93, N-(3-fluorophenyl)-6-methyl-4-oxo-1-phenyl-1,4-dihydropyridazine-3-carboxamide]: 0.282 µM. For the molecule `Cc1cc(=O)c(C(=O)Nc2cnns2)nn1-c1ccccc1` [Example 116, 6-methyl-4-oxo-1-phenyl-N-(1,2,3-thiadiazol-5-yl)-1,4-dihydropyridazine-3-carboxamide], the IC50 is 8.52 µM and 17.4 µM. As for `Cc1cc(=O)c(C(=O)Nc2c(C(C)C)n[nH]c2C(C)C)nn1-c1ccccc1` [Example 90, N-(3,5-diisopropyl-1H-pyrazol-4-yl)-6-methyl-4-oxo-1-phenyl-1,4-dihydropyridazine-3-carboxamide], the IC50 stood at 41.9 µM.

Regarding `Cc1cc(=O)c(C(=O)Nc2nc(C(F)(F)F)c(Br)s2)nn1-c1ccccc1` [Example 84, N-(5-bromo-4-(trifluoromethyl)thiazol-2-yl)-6-methyl-4-oxo-1-phenyl-1,4-dihydropyridazine-3-carboxamide], the IC50 amounted to 33.3 µM.

Regarding `C#CCNC(=O)c1nn(-c2ccccc2)c(C)cc1=O` [Example 110, 6-methyl-4-oxo-1-phenyl-N-(prop-2-yn-1-yl)-1,4-dihydropyridazine-3-carboxamide], the IC50 was found to be 1.59 µM. Next, `Cc1cc(=O)c(C(=O)Nc2ccccc2F)nn1-c1ccccc1` [Example 108, N-(2-fluorophenyl)-6-methyl-4-oxo-1-phenyl-1,4-dihydropyridazine-3-carboxamide]: 28.7 µM; `Cc1nocc1NC(=O)c1nn(-c2ccccc2)c(C)cc1=O` [Example 86, 6-methyl-N-(3-methylisoxazol-4-yl)-4-oxo-1-phenyl-1,4-dihydropyridazine-3-carboxamide]: 17.6 µM; `Cc1cnc2ccccc2c1NC(=O)c1nn(-c2ccccc2)c(C)cc1=O` [Example 31, 6-methyl-N-(3-methylquinolin-4-yl)-4-oxo-1-phenyl-1,4-dihydropyridazine-3-carboxamide]: 0.519 µM. With `Cc1cc(=O)c(C(=O)NC(C)(C)C)nn1-c1ccccc1` [Example 85, N-(tert-butyl)-6-methyl-4-oxo-1-phenyl-1,4-dihydropyridazine-3-carboxamide] the figure was 38.8 µM; with `Cc1cc(=O)c(C(=O)Nc2ccn3nccc3c2)nn1-c1ccccc1` [Example 11, 6-methyl-4-oxo-1-phenyl-N-(pyrazolo[1,5-a]pyridin-5-yl)-1,4-dihydropyridazine-3-carboxamide], 15.4 µM.
